We go through one molecule from US20160175316A1, “METHOD OF PREVENTING OR TREATING ORGAN, HEMATOPOIETIC STEM CELL OR BONE MARROW TRANSPLANT REJECTION” (AbbVie Inc., priority 2006, published 2016).

“Also recorded” adds a separate entry of the source.

The test system of series [1] is human pancreatic islets. Kind of series: Predicted toxicity to pancreatic islets from Bcl-2 family expression profile. The conditions noted are these: predicted from expression profile of Bcl-2 family proteins such as Mcl-1.
The test system of series [2] is islet allografts in spontaneously diabetic (RIP-Kb/CBA; H-2k) mice. The experiment in a line: Allogenic islet graft rejection in diabetic mice. The class given is in vivo, mouse. The conditions noted are these: 50 mg/kg intra-peritoneal daily, 14 days; for islet allograft survival versus vehicle treated recipients: graft on day 6. On the procedure: Non-immune diabetic mice were treated daily for 14 consecutive days with either ABT-737 (50 mg/kg) or vehicle control. On treatment day 6, mice received an allogenic grant of F1(B6×SJL) islets transplanted under the kidney capsule. Blood glucose was measured at various times post-transplantation. Grafts were deemed successful if normal blood glucose (<15 mmol/L) levels were achieved within 4 days post-transplantation.
Viable islets were handpicked under dissecting microscope, pooled and cultured overnight at a density of 200-300 islets/3.5 cm Petri dish in 1.1 ml DME supplemented with 10% FCS at 37° C.; 10% CO2. The following day viable islets were handpicked into aliquots of 400 (of an equivalent size distribution) before grafting into recipient mice.
Spontaneously diabetic (RIP-Kb/CBA; H-2^k) (Sutherland, R. M., Mountford, J. N., Allison, J., Harrison, L. C., & Lew, A. M., The non-immune RIP-Kb mouse is a useful host for islet transplantation, as the diabetes is spontaneous, mild and predictable. Int J Exp Diabetes Res, 2002, 3:37-45) male mice were treated daily for five consecutive days either with ABT-737 (50 mg/kg) or vehicle control via intra-peritoneal injection as described by Mason, K. D., Carpinelli, M. R., Fletcher, J. I., Collinge, J. E., Hilton, A. A., Ellis, S., Kelly, P. N., Ekert, P. G., Metcalf, D., Roberts, A. W., et al. Programmed anulear cell death delimits platelet life span. Cell (2007) 128:1173-1186. On day 6, mice received an allograft under the left kidney capsule consisting of 400 purified mouse pancreatic islets isolated from male and female donors [(C57Bl/6×SJL) F1; H-2^b,s]. Treatment was then continued daily for 8 days post transplantation. Graft function was monitored by diabetes reversal, determined by measuring blood glucose via tail vein bleed.

For series [3], the system named is naïve and memory T cells. Kind of series: In vivo depletion of naïve and memory T cells in spleen and lymph nodes (flow cytometry). Details: species or system C57BL/6 mice. On the procedure: To determine if T cell sensitivity to ABT-737 treatment was predicated on the maturation or differentiation state of a T cell, C57BL/6 mice were treated for 14 consecutive days with either ABT-737 (75 mg/kg) or vehicle control. Spleen and lymph nodes were recovered and the numbers of […]), central memory ([…] effector memory (CD62LloCD44hi) cells determined by flow cytometry.
In general terms: In flow cytometry, cells or beads pass a laser one at a time.

In series [4] the test system is cytotoxic T lymphocytes (CTL). Kind of series: In vivo CTL response after OVA priming. The conditions noted are these: 75 mg/kg daily for a week, OVA priming on day 6, assay seven days after priming. Details: species or system C57BL/6 mice. On the procedure: Having established the impact of ABT-737 on the steady state immune system, its effects on the development of specific immune responses were next examined. C57BL/6 mice were treated daily for a week with either ABT-737 (75 mg/kg) or vehicle control and on treatment day 6, mice were primed with ovalbumin (OVA) antigen in the form of irradiated OVA-coated H-2Kb+ splenocytes (OCS), a protocol known to induce cytotoxic T lymphocytes (CTL). Seven days after T-cell priming, in vivo CTL responses were assayed by measuring the persistence in spleen and lymph nodes of OVA peptide pulsed target cells, CFSE labeled and injected intravenously.

For series [5], the system named is NP-specific B cell subsets (germinal center, memory and plasma cells). Kind of series: In vivo B cell response to NP-KLH immunization. Details: species or system mice. The conditions noted are these: for memory B cell compartment, established memory: treatment started at day 40 after immunization, 14 days, analyzed day 54; for frequency of ASC in the spleen or the bone marrow, established plasma cells: treatment starting day 40 after immunization. On the procedure:
Mice were immunized with NP-KLH in alum by intraperitoneal injection and then treated with ABT-737 (75 mg/kg) or vehicle control for 14 consecutive days, starting 5 days after immunization. On day 19 after immunization, the numbers of NP-specific B cell subsets (germinal center (GC), memory and plasma cells) were quantified. As depicted in FIG. 5A, FIG. 5B, FIG. 5C, FIG. 5D, FIG. 5E, and FIG. 5F, antigen-specific B cells were detected by flow cytometry on the basis of surface staining for B220, NP and IgG1. […] To determine if memory cells were sensitive during formation or maintenance, mice were immunized and memory was allowed to form before ABT-737 treatment started at day 40 after immunization. The mice were analyzed after 14 days of treatment with ABT-737 or vehicle, i.e., day 54 after immunization. […] Antibody secreting cells (ASC) are also generated during the B cell response to antigen, secreting antibodies specific for the antigen. In the later stages of T cell dependent immune responses, ASC originate in the GC, then migrate to the bone marrow where they compete for access to survival niches in order to become long-lived plasma cells.

In series [6] the test system is activated T cells. The experiment in a line: Mouse mixed lymphocyte model, 3H-Thymidine incorporation. In kind it is cell-based. Particulars: Balb/c and C57BL/6 splenocytes co-cultured for 2 days, 6 hour pulse with 3H-Thy. On the procedure:
Inhibition of ^3H-Thymidine incorporation by EXAMPLE A. 5×10^5 Balb/c and C57BL/6 splenocytes were co-cultured for 2 days with EXAMPLE A, its enantiomer or vehicle control before a 6 hour pulse with ^3H-Thy.

Series [7] concerns activated murine B cells. Kind of series: LPS-stimulated B cell proliferation, 3H-Thy pulse. In kind it is cell-based, mouse. Particulars: B6 B cells, in vitro stimulation with low doses of LPS, 6 hour pulse. On the procedure: Untouched B cells from B6 mouse splenocytes were isolated by MACS separation. 2×10^5B cells were cultured with EXAMPLE A, its enantiomer or vehicle control and […] of lipopolysaccharide (LPS) before a 6 hour pulse with ^3H-Thy. Control vs EXAMPLE A (P<0.05 1-way ANOVA using Dunnett's post-hoc). One representative experiment (n=2) is shown.

Where [8] appears, read: 75 mg/kg for 14 days starting 5 days after immunization, day 19.
The mark [9] stands for this setting: treatment starting on day 5 of the response.

As to `CN(C)CC[C@H](CSc1ccccc1)Nc1ccc(S(=O)(=O)NC(=O)c2ccc(N3CCN(Cc4ccccc4-c4ccc(Cl)cc4)CC3)cc2)cc1[N+](=O)[O-]` [EXAMPLE A, N-(4-(4-((4′-chloro(1,1′-biphenyl)-2-yl)methyl)piperazin-1-yl)benzoyl)-4-(((1R)-3-(dimethylamino)-1-((phenylsulfanyl)methyl)propyl)amino)-3-nitrobenzenesulfonamide], the “toxicity to human pancreatic islets” value in series [1] was “low toxicity”. Further, in series [2], the “islet allograft survival versus vehicle treated recipients” value is given as “sufficiently immunosuppressive to allow long-term survival of pancreatic allografts”. Further, the “islet allograft survival versus vehicle treated recipients” value in series [2] (listed as ABT-737) is reported as “functioned significantly longer; also recorded: survived longer”. In series [2] (experiment terminated at 100 days), the “duration of allograft function (all mice, n=5)” value was at least 100 days post-transplantation. For the same molecule, in series [3] (75 mg/kg, 14 consecutive days), the “central and effector memory CD4+ and effector CD8+ T cells in spleen” value is recorded as “remain refractory”; the “numbers of naïve and memory T cells (CD4+ and CD8+) in lymph nodes” value is listed as “significantly reduced”; the “numbers of naïve cells and CD8+ central memory T cells in spleen” value is “effectively reduced”. In series [3] (mouse immune system, summary statement), the “lymphocyte and dendritic cell sub-populations” value was “depleted selective lymphocyte and dendritic cell sub-populations”. Also, in series [4], the CTL activity result was “significantly less CTL activity” and the “reduction in specific target lysis compared to vehicle treated controls” value is “approximately 4 fold”. In series [5] (setting [8]), the “GC (CD38lo) B cells” value was “unaffected”; the “memory (CD38hi) B cells” value is reported as “susceptive”; the “overall number of antigen-specific B cells (B220, NP, IgG1)” value is “no significant difference”. The “GC (CD38lo) B cells” value in series [5] (75 mg/kg for 14 days starting 5 days after immunization, day 19, listed as ABT-737) is “refractory”. In series [5], the “memory B cell compartment, established memory” value is listed as “inhibited the persistence of memory B cells” and the “frequency of ASC in the spleen or the bone marrow, established plasma cells” value is given as “unaffected”. Moreover, in series [5] (listed as ABT-737), the “memory B cell compartment, established memory” value was “still affected” and the “frequency of ASC in the spleen or the bone marrow, established plasma cells” value was “no reduction”. For the same molecule, in series [5] (setting [9]), the “frequency of antigen-specific IgG1 ASC in the spleen” value is “significantly reduced”; the “frequency of total and high affinity NP-specific ASC in the bone marrow” value is reported as “marked reduction”. Further, the “proliferation of activated T cells (3H-Thymidine incorporation)” value in series [6] is on record as “inhibits proliferation of activated T cells in a dose dependent manner”. Besides, the “proliferation of activated murine B cells (3H-Thy)” value in series [7] is “inhibits proliferation of activated murine B cells”.
